# Laboratory results published in patent US20140228445A1, “ALKYNE DERIVATIVES AS SPHINGOSINE 1-PHOSPHATE (S1P) RECEPTOR MODULATORS” (Allergan, Inc., priority 2013, published 2014).
# Biological target: T1, human S1P1 receptor (Homo sapiens, UniProt P21453)
# T1 construct: expressed in transfected cells; membranes used
# Experiment: GTP γ35S binding assay for S1P1 activity
# Assay type: biochemical
# Details: membranes of cells stably expressing the S1P1 receptor, test range 0.08 to 5,000 nM
# Description: Compounds were synthesized and tested for S1P1 activity using the GTP γ^35S binding assay. These compounds may be assessed for their ability to activate or block activation of the human S1P1 receptor in cells stably expressing the S1P1 receptor.
# GTP γ^35S binding was measured in the medium containing (mM) HEPES 25, pH 7.4, MgCl2 10, NaCl 100, dithitothreitol 0.5, digitonin 0.003%, 0.2 nM GTP γ^35S, and 5 μg membrane protein in a volume of 150 μl. Test compounds were included in the concentration range from 0.08 to 5,000 nM unless indicated otherwise. Membranes were incubated with 100 μM 5′-adenylylimmidodiphosphate for 30 min, and subsequently with 10 μM GDP for 10 min on ice. Drug solutions and membrane were mixed, and then reactions were initiated by adding GTP γ^35S and continued for 30 min at 25° C. Reaction mixtures were filtered over Whatman GF/B filters under vacuum, and washed three times with 3 mL of ice-cold buffer (HEPES 25, pH7.4, MgCl2 10 and NaCl 100). Filters were dried and mixed with scintillant, and counted for ^35S activity using a β-counter. Agonist-induced GTP γ^35S binding was obtained by subtracting that in the absence of agonist. Binding data were analyzed using a non-linear regression method. In case of antagonist assay, the reaction mixture contained 10 nM S1P in the presence of test antagonist at concentrations ranging from 0.08 to 5000 nM.
# T1 sequence (P21453 whole entry): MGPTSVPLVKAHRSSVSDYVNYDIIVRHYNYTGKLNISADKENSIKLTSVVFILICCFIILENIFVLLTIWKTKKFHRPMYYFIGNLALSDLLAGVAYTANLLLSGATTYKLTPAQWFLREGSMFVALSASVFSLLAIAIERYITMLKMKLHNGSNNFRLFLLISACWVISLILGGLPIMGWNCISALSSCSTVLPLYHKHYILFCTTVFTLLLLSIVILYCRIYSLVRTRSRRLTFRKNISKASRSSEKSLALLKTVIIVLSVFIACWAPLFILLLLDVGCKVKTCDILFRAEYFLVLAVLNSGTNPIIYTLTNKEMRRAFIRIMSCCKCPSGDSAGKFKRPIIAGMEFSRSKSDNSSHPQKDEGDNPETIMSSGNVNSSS
row,Compound,EC50 [nM]
1,"Cc1ccc(CC(C#Cc2ccc(CCC(N)(CO)CO)cc2)c2cc(F)cc(F)c2)cc1C (stereo not drawn) [Compound 1, 2-Amino-2-(2-{4-[3-(3,5-difluorophenyl)-4-(3,4-dimethylphenyl)but-1-yn-1-yl]phenyl}ethyl)propane-1,3-diol]",35.5
2,"Cc1ccc(CC(C#Cc2ccc(CCC(N)(CO)CO)cc2)c2cccc(F)c2)cc1C (stereo not drawn) [Compound 2, 2-Amino-2-(2-{4-[4-(3,4-dimethylphenyl)-3-(3-fluorophenyl)but-1-yn-1-yl]phenyl}ethyl)propane-1,3-diol]",3.27
3,"Cc1cccc(C(C#Cc2ccc(CCC(N)(CO)CO)cc2)Cc2ccc(C)c(C)c2)c1 (stereo not drawn) [Compound 3, 2-Amino-2-(2-{4-[4-(3,4-dimethylphenyl)-3-(3-methylphenyl)but-1-yn-1-yl]phenyl}ethyl)propane-1,3-diol]",416
